{"source": "patent US11203773B2", "about": "“Designer ribosomes and methods of use thereof for incorporating non-standard amino acids into polypeptides” (Yale University, priority 2016, dated 2021)", "key": {"E. coli GlyRS [1]": {"target": "T1, E. coli GlyRS (Escherichia coli, UniProt P00960)", "T1 sequence (P00960 whole entry)": "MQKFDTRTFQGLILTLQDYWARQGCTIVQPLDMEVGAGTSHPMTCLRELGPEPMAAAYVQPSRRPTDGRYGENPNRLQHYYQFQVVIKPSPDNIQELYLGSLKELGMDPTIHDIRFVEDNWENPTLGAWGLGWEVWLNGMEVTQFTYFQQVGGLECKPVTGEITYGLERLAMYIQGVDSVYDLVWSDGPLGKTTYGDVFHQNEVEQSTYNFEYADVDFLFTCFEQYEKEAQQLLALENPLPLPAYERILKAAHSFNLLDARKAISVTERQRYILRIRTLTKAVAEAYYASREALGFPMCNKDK", "T1 sequence (P00961 whole entry, further chain)": "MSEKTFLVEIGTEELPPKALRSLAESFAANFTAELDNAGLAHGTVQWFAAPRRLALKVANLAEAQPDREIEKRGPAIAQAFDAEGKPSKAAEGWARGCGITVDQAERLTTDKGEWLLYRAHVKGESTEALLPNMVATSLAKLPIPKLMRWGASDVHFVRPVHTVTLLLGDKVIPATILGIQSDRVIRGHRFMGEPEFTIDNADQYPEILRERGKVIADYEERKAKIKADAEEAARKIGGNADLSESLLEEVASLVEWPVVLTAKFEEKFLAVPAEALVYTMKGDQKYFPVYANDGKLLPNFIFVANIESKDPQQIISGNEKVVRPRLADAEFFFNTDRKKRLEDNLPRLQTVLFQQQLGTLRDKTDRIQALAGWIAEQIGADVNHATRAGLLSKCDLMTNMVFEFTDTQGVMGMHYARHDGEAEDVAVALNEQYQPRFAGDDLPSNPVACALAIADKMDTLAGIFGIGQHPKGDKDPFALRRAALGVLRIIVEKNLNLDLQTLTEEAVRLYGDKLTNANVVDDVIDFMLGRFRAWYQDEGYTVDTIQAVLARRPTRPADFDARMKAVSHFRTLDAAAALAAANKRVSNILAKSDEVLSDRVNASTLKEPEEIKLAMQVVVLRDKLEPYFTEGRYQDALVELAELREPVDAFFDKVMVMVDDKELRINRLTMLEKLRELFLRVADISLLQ", "conditions": "aminoacylation"}, "E. coli GlyRS [2]": {"target": "T1, E. coli GlyRS", "conditions": "adenylation", "experimental": "Adenylation of α- and β-Amino Acids Catalyzed by E. coli PheRS, GlyRS, MetRS, and GluRS. […] Briefly, assay mixtures (50 μL) assembled at 25° C. contained the requisite α- or β^3-amino acid substrate (between 5 μM and 5 mM) in 100 mM HEPES (pH 7.0) containing 100 mM KCl, 15 mM MgCl2, 2 mM ATP, 0.5 mM NaPPi, and 50 μCi [^32P]-NaPPi). Reactions were initiated upon addition of enzyme (10 nM MetRS, 10 nM PheRS, or 50 nM GlyRS; 100 nM GluRS for reactions with α-Glu or 1.13 μM GluRS for reactions with β^3-Glu), incubated for various times (10 sec to 10 min), and halted by adding a 5 μL reaction aliquot to 100 μL quenching solution (10% charcoal, 0.5% HCl). 50 μL of 200 mM NaPPi in 1.5 N HCl was then added to each quenched reaction to decrease nonspecific binding of pyrophosphate to the charcoal. Each quenched reaction was then filtered through Whatman filter paper (number 3), previously washed with washing solution (200 mM NaPPi in 1 N HCl) using a 96-well BIO-DOT® apparatus (BioRad). Each well of the apparatus was then washed four times with 200 μL aliquots of washing solution (by pipetting washing solution up and down at least 10 times per wash) to minimize nonspecific binding of pyrophosphate to charcoal. Each experimental well was paired with an analogous control well (no-enzyme control) that lacked enzyme; a single membrane contained time points for both α- and β^3-amino acid substrates and all no-enzyme controls. The membrane was allowed to dry and was protected with a sheet of Microseal B adhesive seals (Biorad) prior to exposure to a BAS Storage Phosphor screen. Screens were imaged on a Typhoon 9500FLA biomolecule imager and the signal intensity of each dot was quantified using ImageJ to determine the relative amount of [^32P]-ATP formed as a function of time (Ctime). Each raw value were corrected by subtracting the intensity of the dot corresponding to the appropriate no-enzyme control (Cblank) and the resulting corrected values of Ccorr (representing the relative amounts of ^32P-ATP formed) were plotted as a function of time to determine values of relative ^32P-ATP formed per minute. Those values were divided by the concentration of enzyme used, and the data was plotted as relative specific activity (^32P-ATP formed min^−1×μM^−1 enzyme) and fitted using Prism by performing nonlinear regression using the least squares method and Equation 1 to obtain RSA (relative specific activity) and KM values (Equation 1 and Table 2).\nIn Equation 1, v is the apparent relative specific activity (relative ^32P-ATP formed per minute) obtained at each substrate concentration divided by the enzyme concentration, RSA is the relative specific activity, S is the concentration of substrate, and KM is the Michaelis-Menten constant."}, "E. coli GlyRS [3]": {"target": "T1, E. coli GlyRS", "experimental": "Deacylation assays. Large scale (200 μL) aminoacylation reactions were initiated using the conditions described above (iv). The reactions were allowed to proceed for 1 h at 37° C., after which each reaction mixture was phenol/chloroform extracted. In each case, the aminoacylated tRNA product was ethanol precipitated, and the buffer was exchanged using a micro Bio-Spin 6 column (BioRad) following the procedure specified by the manufacturer and 100 mM HEPES (pH 8.0) containing 100 mM KCl. The precise extent of aminoacylation was calculated using the procedure described above; the 2 μM concentration corresponds to total aminoacylated tRNA. Assays were performed at 25° C. in a 50 μL reaction with 2 μM [^32P]-aminoacyl-tRNA in 100 mM HEPES (pH 7.0) containing 100 mM KCl and 15 mM MgCl2."}}, "note": "Read-outs that look alike come from different tables or passages of the source."}
{"smiles": "NCC(=O)O", "note": "[α-Gly, Glycine]", "values": [{"measurement": "Km", "setting": "E. coli GlyRS [1]", "value": "13.4 ± 4.7", "unit": "µM"}, {"measurement": "Ratio (α/β) of KM", "setting": "E. coli GlyRS [1]", "value": "1.2 ± 1.00"}, {"measurement": "Ratio (α/β) of kcat", "setting": "E. coli GlyRS [1]", "value": "1.9 ± 1.0"}, {"measurement": "Ratio (α/β) of kcat/KM", "setting": "E. coli GlyRS [1]", "value": "1.5 ± 0.7"}, {"measurement": "kcat", "setting": "E. coli GlyRS [1]; 2 μM tRNA", "value": "5.8 ± 0.5", "unit": "min⁻¹"}, {"measurement": "Km", "setting": "E. coli GlyRS [2]", "value": "9.8 ± 3.5", "unit": "µM"}, {"measurement": "Ratio (α-/β-) of KM", "setting": "E. coli GlyRS [2]", "value": "0.14 ± 0.11"}, {"measurement": "Ratio (α-/β-) of RSA", "setting": "E. coli GlyRS [2]", "value": "1.14 ± 0.24"}, {"measurement": "Ratio (α-/β-) of kcat/KM", "setting": "E. coli GlyRS [2]", "value": "7.97 ± 6.46"}, {"measurement": "kcat (min^−1) or RSA (^32P-ATP formed min^−1 enzyme μM^−1)", "setting": "E. coli GlyRS [2]; RSA, 25° C., pH 7.0", "value": "166.8 ± 12.8 ^32P-ATP formed min^−1 enzyme μM^−1"}, {"measurement": "krev (apparent rate of deacylation)", "setting": "E. coli GlyRS [3]; deacylation of aminoacyl-tRNA, GlyRS 2 μM, 25° C.", "value": "0.21 ± 0.08", "unit": "min⁻¹"}, {"measurement": "Ratio (α/β) of krev", "setting": "E. coli GlyRS [3]; deacylation, GlyRS", "value": "0.3 ± 0.1"}]}
